Test results taken from patent US20250059174A1, “Pharmaceutical Compounds and Compositions as C-Kit Kinase Inhibitors” (Enanta Pharmaceuticals, Inc., priority 2023, published 2025).

How the values were obtained:
[1] = target: Recombinant human c-KIT kinase (Homo sapiens (Human), UniProt P10721); assay: c-KIT kinase chemiluminescence assay (ADP-Glo); type: biochemical; conditions: ATP 50 μM
Method in brief: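 Recombinant human c-KIT preincubated 30 min at RT in 40 mM Tris pH 7.5, 20 mM MgCl2, 0.1 mg/mL BSA, 50 μM DTT, then reacted 2 h at RT with ATP and polyEY substrate. ADP-Glo luminescence readout; activity normalized to high/low controls, IC50 and Hill coefficient from inhibitor-versus-normalized-response fit.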

M-07e cells = assay: M-07e cellular assay (SCF-mediated cell proliferation); type: cell-based; conditions: Homo sapiens, 72 hours, CellTiter Glo
Method in brief: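 Readout came from CellTiter Glo after 72 h of compound treatment in SCF (EC90)-stimulated, pre-starved M-07e cells at 37 °C.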

Recombinant human c-KIT kinase, sequence (P10721 26-976): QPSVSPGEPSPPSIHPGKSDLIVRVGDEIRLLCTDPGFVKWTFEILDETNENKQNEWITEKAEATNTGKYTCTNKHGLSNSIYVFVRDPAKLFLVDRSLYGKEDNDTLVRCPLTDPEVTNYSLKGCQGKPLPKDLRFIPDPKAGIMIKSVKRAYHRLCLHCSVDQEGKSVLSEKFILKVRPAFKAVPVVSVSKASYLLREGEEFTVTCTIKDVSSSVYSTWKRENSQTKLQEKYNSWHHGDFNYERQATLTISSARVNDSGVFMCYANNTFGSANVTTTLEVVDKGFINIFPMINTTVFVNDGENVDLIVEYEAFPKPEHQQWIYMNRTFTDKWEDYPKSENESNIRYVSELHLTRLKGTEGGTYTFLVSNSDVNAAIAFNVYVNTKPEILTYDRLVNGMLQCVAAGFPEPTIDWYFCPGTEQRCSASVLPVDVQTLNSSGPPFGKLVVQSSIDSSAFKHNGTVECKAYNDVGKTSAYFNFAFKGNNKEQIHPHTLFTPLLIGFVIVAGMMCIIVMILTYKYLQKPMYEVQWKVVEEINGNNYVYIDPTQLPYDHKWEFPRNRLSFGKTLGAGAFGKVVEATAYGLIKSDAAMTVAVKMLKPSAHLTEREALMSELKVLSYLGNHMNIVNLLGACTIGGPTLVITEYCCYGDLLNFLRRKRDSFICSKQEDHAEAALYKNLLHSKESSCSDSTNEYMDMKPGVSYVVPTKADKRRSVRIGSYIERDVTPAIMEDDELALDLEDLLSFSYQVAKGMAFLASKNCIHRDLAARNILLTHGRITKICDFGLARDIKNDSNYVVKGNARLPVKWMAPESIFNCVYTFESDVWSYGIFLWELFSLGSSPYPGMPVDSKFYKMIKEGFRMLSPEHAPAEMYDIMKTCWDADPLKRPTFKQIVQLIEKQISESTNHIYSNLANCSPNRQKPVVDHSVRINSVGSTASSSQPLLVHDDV

Row | SMILES | IC50 [1] | EC50 (M-07e cells)
1 | Cc1ccc(-c2noc([C@H]3C[C@@H]3F)n2)cc1NC(=O)c1cnn2ccc(N3CC(C(=O)NC4CC4)C3)cc12 [Example 241-10] | < 100 nM | < 100 nM
2 | Cc1ccc(-c2noc([C@H]3C[C@@H]3F)n2)cc1NC(=O)c1cnn2ccc(N3CC(C(=O)N4CC(F)(F)C4)C3)cc12 [Example 241-11] | < 100 nM | < 100 nM
3 | Cc1ccc(-c2noc([C@H]3C[C@@H]3F)n2)cc1NC(=O)c1cnn2ccc(N3CC4(CN(C(=O)C5CC(F)(F)C5)C4)C3)cc12 [Example 241-12] | < 100 nM | < 100 nM
4 | Cc1ccc(-c2noc([C@H]3C[C@@H]3F)n2)cc1NC(=O)c1cnn2ccc(N3CC(COCc4ccccc4)(C(=O)OCc4ccccc4)C3)cc12 [Example 241-13] | > 1000 nM | > 1000 nM
5 | Cc1ccc(-c2noc([C@H]3C[C@@H]3F)n2)cc1NC(=O)c1cnn2ccc(NCC3(C(=O)O)COC3)cc12 [Example 241-14] | 100 to 1000 nM | > 1000 nM
6 | Cc1ccc(-c2noc([C@H]3C[C@@H]3F)n2)cc1NC(=O)c1cnn2ccc(N3CC4(CN(C(=O)C(F)(F)F)C4)C3)cc12 [Example 241-15] | < 100 nM | < 100 nM
7 | Cc1ccc(-c2noc([C@H]3C[C@@H]3F)n2)cc1NC(=O)c1cnn2ccc(N3CC(CO)(C(=O)O)C3)cc12 [Example 241-16] | 100 to 1000 nM | > 1000 nM
8 | Cc1ccc(-c2noc([C@H]3C[C@@H]3F)n2)cc1NC(=O)c1cnn2ccc(N3CCOCC3)cc12 [Example 241] | < 100 nM | < 100 nM
9 | Cc1ccc(-c2noc([C@H]3C[C@@H](OC(F)(F)F)C3)n2)cc1NC(=O)c1cnn2ccc(N3CC4(COC4)C3)cc12 [Example 243] | < 100 nM | < 100 nM
10 | Cc1ccc(-c2noc([C@H]3C[C@@H](OC(F)(F)F)C3)n2)cc1NC(=O)c1cnn2ccc(N3CC4(CN(CC(F)(F)F)C4)C3)cc12 [Example 244] | < 100 nM | < 100 nM
11 | Cc1ccc(-c2noc([C@H]3C[C@H](OC(F)(F)F)C3)n2)cc1NC(=O)c1cnn2ccc(N3CC4(COC4)C3)cc12 [Example 245] | < 100 nM | < 100 nM
12 | Cc1ccc(-c2noc([C@H]3C[C@@H](OC(C)C)C3)n2)cc1NC(=O)c1cnn2ccc(N3CC4(CN(CC(F)(F)F)C4)C3)cc12 [Example 246] | 100 to 1000 nM | < 100 nM
13 | Cc1ccc(-c2noc([C@H]3C[C@H](OC(F)F)C3)n2)cc1NC(=O)c1cnn2ccc(N3CC4(COC4)C3)cc12 [Example 247] | < 100 nM | < 100 nM
14 | Cc1ccc(-c2noc([C@H]3C[C@@H](OC(F)F)C3)n2)cc1NC(=O)c1cnn2ccc(N3CC4(CCN(CC(F)F)C4)C3)cc12 [Example 248] | 100 to 1000 nM | < 100 nM
15 | Cc1ccc(-c2noc(C34CC(F)(C3)C4)n2)cc1NC(=O)c1cnn2ccc(N3CC4(COC4)C3)cc12 [Example 249] | < 100 nM | < 100 nM
16 | Cc1ccc(-c2noc([C@H]3C[C@@H](OC(F)F)C3(C)C)n2)cc1NC(=O)c1cnn2ccc(N3CC4(COC4)C3)cc12 [Example 250] | < 100 nM | 100 to 1000 nM
17 | Cc1ccc(-c2noc([C@H]3C[C@@H](OC(F)(F)F)C3)n2)cc1NC(=O)c1cnn2ccc(N3CC4(CCN(CC(F)F)C4)C3)cc12 [Example 251] | 100 to 1000 nM | 100 to 1000 nM
18 | Cc1ccc(-c2noc([C@H]3C[C@@H](OC(F)(F)F)C3)n2)cc1NC(=O)c1cnn2ccc(N3CC4(CCN(CC(F)(F)F)C4)C3)cc12 [Example 252] | 100 to 1000 nM | 100 to 1000 nM
19 | Cc1ccc(-c2noc([C@H]3C[C@@H](OC(F)F)C3)n2)cc1NC(=O)c1cnn2ccc(N3CC4(CCN(CC(F)(F)F)C4)C3)cc12 [Example 253] | 100 to 1000 nM | 100 to 1000 nM
20 | Cc1ccc(-c2noc([C@H]3C[C@@H](OC(F)F)C3(C)C)n2)cc1NC(=O)c1cnn2ccc(N3CC4(CCN(CC(F)(F)F)C4)C3)cc12 [Example 254] | 100 to 1000 nM | 100 to 1000 nM
21 | Cc1ccc(-c2noc([C@H]3C[C@@H](OC(F)F)C3(C)C)n2)cc1NC(=O)c1cnn2ccc(N3CC4(CCN(CC(F)F)C4)C3)cc12 [Example 255] | < 100 nM | 100 to 1000 nM
22 | Cc1ccc(-c2noc([C@H]3C[C@@H](OC(F)(F)F)C3)n2)cc1NC(=O)c1cnn2ccc(N3CC4CC(C3)O4)cc12 [Example 256] | < 100 nM | < 100 nM
23 | Cc1ccc(-c2noc([C@H]3C[C@@H](OC(F)F)C3)n2)cc1NC(=O)c1cnn2ccc(N3CC4CC(C3)O4)cc12 [Example 257] | < 100 nM | 100 to 1000 nM
24 | Cc1ccc(-c2noc([C@H]3C[C@@H](OC(F)(F)F)C3)n2)cc1NC(=O)c1cnn2ccc(N3CC4(CN(C(=O)OC(C)(C)C)C4)C3)cc12 [Example 258] | 100 to 1000 nM | 100 to 1000 nM
25 | Cc1ccc(-c2noc([C@H]3C[C@@H](OC(F)(F)F)C3)n2)cc1NC(=O)c1cnn2ccc(N3CC4(CN(CC(F)F)C4)C3)cc12 [Example 259] | < 100 nM | < 100 nM

Row | SMILES | IC50 [1] | EC50 (M-07e cells)
26 | Cc1ccc(-c2noc([C@H]3C[C@@H](OC(F)(F)F)C3)n2)cc1NC(=O)c1cnn2ccc(N3CC4(CNC4)C3)cc12 [Example 260] | < 100 nM | 100 to 1000 nM
27 | Cc1ccc(-c2noc([C@H]3C[C@@H]3F)n2)nc1NC(=O)c1cnn2ccc(N3CC4(COC4)C3)cc12 [Example 261] | 100 to 1000 nM | 100 to 1000 nM
28 | O=C(Nc1cc(-c2noc([C@H]3C[C@@H]3F)n2)ccc1Cl)c1cnn2ccc(N3CC4(COC4)C3)cc12 [Example 262] | < 100 nM | < 100 nM
29 | Cc1ccc(-c2noc([C@H]3C[C@@H](OC(F)(F)F)C3)n2)cc1NC(=O)c1cnn2cc(-c3cn(C(F)F)nn3)ccc12 [Example 263] | < 100 nM | < 100 nM
30 | O=C(Nc1cc(-c2noc([C@H]3C[C@@H](OC(F)(F)F)C3)n2)ccc1Cl)c1cnn2ccc(N3CC4(COC4)C3)cc12 [Example 264] | < 100 nM | < 100 nM
31 | O=C(Nc1cc(-c2noc([C@H]3C[C@@H](OC(F)F)C3)n2)ccc1Cl)c1cnn2ccc(N3CC4(COC4)C3)cc12 [Example 265] | < 100 nM | < 100 nM
32 | Cc1ccc(-c2noc([C@H]3C[C@@H](OC(F)F)C3)n2)nc1NC(=O)c1cnn2ccc(N3CC4(COC4)C3)cc12 [Example 266] | 100 to 1000 nM | 100 to 1000 nM
33 | Cc1ccc(-c2noc([C@H]3C[C@@H](OC(F)(F)F)C3)n2)nc1NC(=O)c1cnn2ccc(N3CC4(COC4)C3)cc12 [Example 267] | 100 to 1000 nM | 100 to 1000 nM
34 | Cc1ncc(-c2noc([C@H]3C[C@@H]3F)n2)cc1NC(=O)c1cnn2ccc(N3CC4(COC4)C3)cc12 [Example 268] | 100 to 1000 nM | 100 to 1000 nM
35 | Cc1ncc(-c2noc([C@H]3C[C@@H](OC(F)F)C3)n2)cc1NC(=O)c1cnn2ccc(N3CC4(COC4)C3)cc12 [Example 269] | 100 to 1000 nM | < 100 nM
36 | Cc1ncc(-c2noc([C@H]3C[C@@H](OC(F)(F)F)C3)n2)cc1NC(=O)c1cnn2ccc(N3CC4(COC4)C3)cc12 [Example 270] | 100 to 1000 nM | < 100 nM
37 | Cc1ccc(-c2noc(C34CC(OC(F)F)(C3)C4)n2)cc1NC(=O)c1cnn2ccc(N3CC4(COC4)C3)cc12 [Example 271] | < 100 nM | < 100 nM
38 | COC12CC(c3nc(-c4ccc(C)c(NC(=O)c5cnn6ccc(N7CC8(COC8)C7)cc56)c4)no3)(C1)C2 [Example 272] | < 100 nM | < 100 nM
39 | CO[C@H]1C[C@@H](c2nc(-c3ccc(C)c(NC(=O)c4cnn5ccc(N6CC7(COC7)C6)cc45)c3)no2)C1 [Example 273] | 100 to 1000 nM | < 100 nM
40 | CO[C@H]1C[C@H](c2nc(-c3ccc(C)c(NC(=O)c4cnn5ccc(N6CC7(COC7)C6)cc45)c3)no2)C1 [Example 274] | 100 to 1000 nM | < 100 nM
41 | Cc1ccc(-c2noc([C@H]3C[C@@H](OC(F)F)C3)n2)cc1NC(=O)c1cnn2cc(-c3cn(C(F)F)nn3)ccc12 [Example 275] | < 100 nM | < 100 nM
42 | Cc1ccc(-c2noc([C@H]3C[C@H]3C(F)F)n2)cc1NC(=O)c1cnn2ccc(N3CC4(COC4)C3)cc12 [Example 276] | < 100 nM | < 100 nM
43 | Cc1ccc(-c2noc([C@@H]3C[C@@H]3C(F)F)n2)cc1NC(=O)c1cnn2ccc(N3CC4(COC4)C3)cc12 [Example 277] | < 100 nM | < 100 nM
44 | Cc1ccc(-c2noc([C@H]3C[C@@H]3C(F)F)n2)cc1NC(=O)c1cnn2ccc(N3CC4(COC4)C3)cc12 [Example 278] | < 100 nM | < 100 nM
45 | Cc1ccc(-c2noc([C@@H]3C[C@@H]4[C@H](C3)C4(F)F)n2)cc1NC(=O)c1cnn2ccc(N3CC4(COC4)C3)cc12 [Example 279] | < 100 nM | < 100 nM
46 | Cc1ccc(-c2noc([C@H]3C[C@@H]4[C@H](C3)C4(F)F)n2)cc1NC(=O)c1cnn2ccc(N3CC4(COC4)C3)cc12 [Example 280] | < 100 nM | < 100 nM
47 | Cc1ccc(-c2noc([C@@H]3C[C@H]3C(F)F)n2)cc1NC(=O)c1cnn2ccc(N3CC4(COC4)C3)cc12 [Example 281-1] | < 100 nM | < 100 nM
48 | Cc1ccc(-c2noc(C3CC4(C3)CC(F)(F)C4)n2)cc1NC(=O)c1cnn2ccc(N3CC4(COC4)C3)cc12 [Example 281-2] | < 100 nM | < 100 nM
49 | [2H]C([2H])([2H])c1ccc(-c2noc([C@H]3C[C@@H]3F)n2)cc1NC(=O)c1cnn2ccc(N3CC4(COC4)C3)cc12 [Example 281-3] | < 100 nM | < 100 nM
50 | [2H]C([2H])([2H])c1ccc(-c2noc([C@H]3C[C@@H](OC(F)F)C3)n2)cc1NC(=O)c1cnn2ccc(N3CC4(COC4)C3)cc12 [Example 281-4] | < 100 nM | < 100 nM
